Patent US20150087627A1, “COMBINATION OF KINASE INHIBITORS AND USES THEREOF” (Intellikine LLC, priority 2011, published 2015)

Assays:
Assay type in all cases: biochemical
PI3K α (p110α/p85α) = biological target: T1, PI3K α (p110α/p85α) (Homo sapiens, UniProt P42336); assay: PI 3-Kinase (human) HTRF assay, PI3K α; conditions: read-out: PI3K α IC50
T1 construct: purchased Upstate / Millipore Corporation

PI3K β (p110β/p85α) = biological target: T2, PI3K β (p110β/p85α) (Homo sapiens, UniProt P42338); assay: PI 3-Kinase (human) HTRF assay, PI3K β; conditions: read-out: PI3K β IC50
T2 construct: purchased Upstate / Millipore Corporation
T2 sequence (P42338 whole entry): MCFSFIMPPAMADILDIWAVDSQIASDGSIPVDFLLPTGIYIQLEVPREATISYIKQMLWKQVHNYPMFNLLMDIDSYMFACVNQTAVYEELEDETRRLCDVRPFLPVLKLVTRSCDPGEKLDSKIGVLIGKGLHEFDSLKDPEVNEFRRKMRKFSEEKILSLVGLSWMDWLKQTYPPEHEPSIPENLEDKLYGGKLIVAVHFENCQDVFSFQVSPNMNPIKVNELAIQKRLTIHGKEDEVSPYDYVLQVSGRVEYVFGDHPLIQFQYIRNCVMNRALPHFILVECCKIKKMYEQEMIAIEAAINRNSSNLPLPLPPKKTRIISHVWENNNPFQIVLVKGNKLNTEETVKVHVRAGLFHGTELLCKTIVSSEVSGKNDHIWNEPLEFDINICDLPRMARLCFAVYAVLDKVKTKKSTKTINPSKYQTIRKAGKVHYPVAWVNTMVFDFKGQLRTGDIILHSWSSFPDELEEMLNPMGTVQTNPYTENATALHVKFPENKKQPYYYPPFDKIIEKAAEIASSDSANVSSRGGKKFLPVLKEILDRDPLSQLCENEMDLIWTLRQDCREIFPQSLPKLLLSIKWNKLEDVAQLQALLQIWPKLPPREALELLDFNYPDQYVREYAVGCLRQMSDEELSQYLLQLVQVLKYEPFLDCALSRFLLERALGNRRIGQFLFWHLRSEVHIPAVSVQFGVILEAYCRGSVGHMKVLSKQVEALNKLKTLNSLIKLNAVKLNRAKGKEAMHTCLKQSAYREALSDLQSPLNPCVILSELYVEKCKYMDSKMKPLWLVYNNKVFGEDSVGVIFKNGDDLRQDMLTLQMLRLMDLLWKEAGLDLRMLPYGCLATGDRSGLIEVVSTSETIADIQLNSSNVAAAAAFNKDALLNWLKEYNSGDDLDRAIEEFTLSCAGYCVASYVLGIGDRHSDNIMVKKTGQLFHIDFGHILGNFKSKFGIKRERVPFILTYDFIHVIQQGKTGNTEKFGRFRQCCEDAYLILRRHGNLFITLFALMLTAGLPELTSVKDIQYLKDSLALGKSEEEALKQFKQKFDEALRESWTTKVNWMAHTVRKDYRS
T2 sequence (P27986 whole entry partner): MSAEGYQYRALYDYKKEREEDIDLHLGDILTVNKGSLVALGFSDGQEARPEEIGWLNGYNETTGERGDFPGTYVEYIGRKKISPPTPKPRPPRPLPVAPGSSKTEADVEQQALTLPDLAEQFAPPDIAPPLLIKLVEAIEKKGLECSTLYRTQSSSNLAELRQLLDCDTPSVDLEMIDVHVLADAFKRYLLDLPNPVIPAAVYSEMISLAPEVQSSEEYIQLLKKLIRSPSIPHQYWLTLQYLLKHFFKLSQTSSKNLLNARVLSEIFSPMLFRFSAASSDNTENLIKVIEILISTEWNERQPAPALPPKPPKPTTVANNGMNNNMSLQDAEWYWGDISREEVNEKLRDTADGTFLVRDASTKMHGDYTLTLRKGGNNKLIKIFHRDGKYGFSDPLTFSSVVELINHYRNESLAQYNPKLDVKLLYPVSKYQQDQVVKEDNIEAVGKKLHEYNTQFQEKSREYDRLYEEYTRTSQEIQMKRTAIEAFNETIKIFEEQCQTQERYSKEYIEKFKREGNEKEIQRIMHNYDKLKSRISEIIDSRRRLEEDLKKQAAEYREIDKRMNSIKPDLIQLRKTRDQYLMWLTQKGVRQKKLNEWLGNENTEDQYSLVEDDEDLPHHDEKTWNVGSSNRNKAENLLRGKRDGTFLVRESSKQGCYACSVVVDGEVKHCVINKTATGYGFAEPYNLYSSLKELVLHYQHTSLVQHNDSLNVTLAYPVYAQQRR

PI3K γ (p110γ) = biological target: T3, PI3K γ (p110γ) (Homo sapiens, UniProt P48736); assay: PI 3-Kinase (human) HTRF assay, PI3K γ; conditions: read-out: PI3K γ IC50
T3 construct: purchased Upstate / Millipore Corporation
T3 sequence (P48736 whole entry): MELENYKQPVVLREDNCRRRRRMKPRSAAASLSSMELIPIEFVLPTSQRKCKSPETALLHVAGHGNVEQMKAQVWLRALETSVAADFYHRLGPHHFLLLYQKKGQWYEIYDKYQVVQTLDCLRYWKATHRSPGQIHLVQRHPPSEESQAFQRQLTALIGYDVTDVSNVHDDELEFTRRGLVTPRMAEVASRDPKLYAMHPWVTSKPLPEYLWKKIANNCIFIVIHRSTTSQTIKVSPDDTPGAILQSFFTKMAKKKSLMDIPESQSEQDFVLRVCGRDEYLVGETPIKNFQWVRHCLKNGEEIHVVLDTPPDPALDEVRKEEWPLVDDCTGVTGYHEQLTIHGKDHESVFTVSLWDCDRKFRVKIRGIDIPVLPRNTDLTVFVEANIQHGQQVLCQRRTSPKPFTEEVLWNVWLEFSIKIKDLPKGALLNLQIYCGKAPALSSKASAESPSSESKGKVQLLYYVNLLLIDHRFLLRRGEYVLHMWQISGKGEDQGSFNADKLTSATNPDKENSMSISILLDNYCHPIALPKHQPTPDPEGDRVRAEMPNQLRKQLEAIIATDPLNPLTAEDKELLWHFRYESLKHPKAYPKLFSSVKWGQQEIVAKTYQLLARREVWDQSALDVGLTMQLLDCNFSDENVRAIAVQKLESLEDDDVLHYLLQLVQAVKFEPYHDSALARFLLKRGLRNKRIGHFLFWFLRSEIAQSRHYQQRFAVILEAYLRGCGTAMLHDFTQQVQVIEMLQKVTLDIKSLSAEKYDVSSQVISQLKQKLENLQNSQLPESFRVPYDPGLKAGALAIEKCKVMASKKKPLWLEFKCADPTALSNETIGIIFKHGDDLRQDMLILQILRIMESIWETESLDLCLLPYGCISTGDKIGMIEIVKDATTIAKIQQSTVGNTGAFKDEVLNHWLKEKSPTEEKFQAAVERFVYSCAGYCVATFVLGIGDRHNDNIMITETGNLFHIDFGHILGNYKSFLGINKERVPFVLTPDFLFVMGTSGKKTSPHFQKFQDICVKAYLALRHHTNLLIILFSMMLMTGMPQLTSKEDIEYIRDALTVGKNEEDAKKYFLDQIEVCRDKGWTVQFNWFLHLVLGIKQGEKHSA

PI3K δ = biological target: T4, PI3K δ (Homo sapiens, UniProt O00329); assay: PI 3-Kinase (human) HTRF assay, PI3K δ; conditions: read-out: PI3K δ IC50
T4 construct: purchased Upstate / Millipore Corporation
T4 sequence (O00329 whole entry): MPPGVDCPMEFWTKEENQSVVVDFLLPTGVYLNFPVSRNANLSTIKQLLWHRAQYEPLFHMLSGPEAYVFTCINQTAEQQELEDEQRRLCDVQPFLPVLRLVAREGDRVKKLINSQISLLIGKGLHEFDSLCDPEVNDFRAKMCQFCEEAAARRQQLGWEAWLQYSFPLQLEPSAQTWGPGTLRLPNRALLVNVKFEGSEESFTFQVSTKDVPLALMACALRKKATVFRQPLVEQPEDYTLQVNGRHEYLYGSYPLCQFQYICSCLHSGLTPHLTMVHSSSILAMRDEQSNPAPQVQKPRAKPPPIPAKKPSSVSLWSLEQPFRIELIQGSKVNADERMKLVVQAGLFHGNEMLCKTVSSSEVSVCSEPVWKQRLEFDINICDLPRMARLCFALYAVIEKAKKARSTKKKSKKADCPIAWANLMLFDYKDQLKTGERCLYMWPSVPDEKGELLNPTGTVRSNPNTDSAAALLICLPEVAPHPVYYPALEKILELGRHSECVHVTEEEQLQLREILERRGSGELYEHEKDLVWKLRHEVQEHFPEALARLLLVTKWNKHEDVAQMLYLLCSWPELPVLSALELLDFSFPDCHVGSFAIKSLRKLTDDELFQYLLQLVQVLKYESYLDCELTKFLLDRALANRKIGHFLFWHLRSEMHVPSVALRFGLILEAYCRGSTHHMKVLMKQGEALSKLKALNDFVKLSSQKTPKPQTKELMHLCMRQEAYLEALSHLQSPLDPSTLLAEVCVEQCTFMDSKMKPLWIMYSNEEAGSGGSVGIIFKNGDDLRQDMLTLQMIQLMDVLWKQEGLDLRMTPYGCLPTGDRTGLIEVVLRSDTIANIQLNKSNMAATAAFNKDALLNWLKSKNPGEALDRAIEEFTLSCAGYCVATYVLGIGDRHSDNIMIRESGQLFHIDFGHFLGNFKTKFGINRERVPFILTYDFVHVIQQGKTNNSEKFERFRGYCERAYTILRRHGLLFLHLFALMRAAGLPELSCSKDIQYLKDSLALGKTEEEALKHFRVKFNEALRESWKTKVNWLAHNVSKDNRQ
T4 sequence (P27986 whole entry partner): as the sequence (P27986 whole entry partner) above

T1 sequence (P42336 whole entry): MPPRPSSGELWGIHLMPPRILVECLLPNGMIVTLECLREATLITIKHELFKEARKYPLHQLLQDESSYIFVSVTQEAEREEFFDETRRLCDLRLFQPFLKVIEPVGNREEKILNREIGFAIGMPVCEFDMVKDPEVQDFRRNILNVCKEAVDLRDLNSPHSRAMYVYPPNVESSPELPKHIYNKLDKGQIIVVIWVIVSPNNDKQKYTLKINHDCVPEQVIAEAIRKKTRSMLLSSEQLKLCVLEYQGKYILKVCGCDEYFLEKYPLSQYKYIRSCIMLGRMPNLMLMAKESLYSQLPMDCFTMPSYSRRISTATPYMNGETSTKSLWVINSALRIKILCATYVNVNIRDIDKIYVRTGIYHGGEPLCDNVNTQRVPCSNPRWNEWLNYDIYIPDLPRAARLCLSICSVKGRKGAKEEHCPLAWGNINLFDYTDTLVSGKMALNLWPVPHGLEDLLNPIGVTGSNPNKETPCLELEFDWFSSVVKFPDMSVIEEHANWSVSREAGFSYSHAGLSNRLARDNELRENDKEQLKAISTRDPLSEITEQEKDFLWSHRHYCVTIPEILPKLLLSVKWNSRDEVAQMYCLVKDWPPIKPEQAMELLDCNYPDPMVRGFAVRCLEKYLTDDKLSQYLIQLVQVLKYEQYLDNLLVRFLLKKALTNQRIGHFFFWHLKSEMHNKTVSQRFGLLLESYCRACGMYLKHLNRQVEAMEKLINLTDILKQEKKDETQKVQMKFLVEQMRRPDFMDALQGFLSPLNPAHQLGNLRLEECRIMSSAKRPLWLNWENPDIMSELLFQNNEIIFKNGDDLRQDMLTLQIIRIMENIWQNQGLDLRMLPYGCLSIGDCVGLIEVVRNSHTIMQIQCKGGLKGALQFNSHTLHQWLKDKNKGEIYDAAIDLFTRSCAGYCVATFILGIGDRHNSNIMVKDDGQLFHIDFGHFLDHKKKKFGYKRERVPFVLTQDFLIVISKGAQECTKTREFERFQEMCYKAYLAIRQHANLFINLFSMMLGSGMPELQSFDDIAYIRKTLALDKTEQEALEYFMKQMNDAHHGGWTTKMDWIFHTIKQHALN
T1 sequence (P27986 whole entry partner): as the sequence (P27986 whole entry partner) above

SMILES | IC50 (PI3K α (p110α/p85α)) | IC50 (PI3K β (p110β/p85α)) | IC50 (PI3K γ (p110γ)) | IC50 (PI3K δ)
Nc1nc2cc(-c3ccc4ncc(N5CCOCC5)n4n3)ccc2o1 [Compound 57] | < 1000 nM | < 1000 nM | < 10000 nM | > 10000 nM
Nc1nc2cc(-c3ccc4ncc(-c5cccnc5)n4n3)ccc2o1 [Compound 58] | < 100 nM | < 100 nM | < 100 nM | < 100 nM
Nc1nc2cc(-c3ccc4ncc(-c5cn[nH]c5)n4n3)ccc2o1 [Compound 59] | < 100 nM | < 100 nM | < 100 nM | < 1000 nM
Nc1nc2cc(-c3cnc4ncc(-c5ccncc5)n4c3)ccc2o1 [Compound 61] | > 10000 nM | > 10000 nM | > 10000 nM | > 10000 nM
Nc1nc2ccc(-c3ccc4ncn(C5CCOCC5)c(=O)c4c3)cc2o1 [Compound 63] | < 10000 nM | > 10000 nM | > 10000 nM | > 10000 nM
Nc1nc2cc(-c3cn4c(-c5ccncc5)cnc4cn3)ccc2o1 [Compound 68] | < 100 nM | < 10000 nM | < 1000 nM | < 10000 nM
Nc1nc2cc(-c3cn4c(-c5cn[nH]c5)cnc4cn3)ccc2o1 [Compound 69] | < 1000 nM | < 10000 nM | < 1000 nM | < 10000 nM
Nc1nc2cc(-c3ccc4nccc(-c5ccncc5)c4c3)ccc2s1 [Compound 70] | < 100 nM | < 100 nM | < 100 nM | < 100 nM
Nc1nc2cc(-c3ccc4ncc(-c5ccncc5)nc4c3)ccc2o1 [Compound 71] | < 100 nM | < 10000 nM | < 100 nM | < 1000 nM
CCN1CCC(n2cnc3ccc(-c4ccc5oc(N)nc5c4)cc3c2=O)CC1 [Compound 73] | < 1000 nM | < 10000 nM | > 10000 nM | > 10000 nM
CN1CCN(c2nc3cc(-c4ccc5oc(N)nc5c4)ccc3c(=O)n2C)CC1 [Compound 79] | < 10000 nM | > 10000 nM | > 10000 nM | > 10000 nM
Cn1c(N2CCOCC2)nc2cc(-c3ccc4oc(N)nc4c3)ccc2c1=O [Compound 80] | < 1000 nM | > 10000 nM | > 10000 nM | > 10000 nM
CN1CCC(Nc2cnc3ccc(-c4ccc5oc(N)nc5c4)cc3n2)CC1 [Compound 81] | < 100 nM | < 1000 nM | < 1000 nM | < 100 nM
CC(=O)N1CCC(Nc2cnc3ccc(-c4ccc5oc(N)nc5c4)cc3n2)CC1 [Compound 82] | < 100 nM | < 10000 nM | < 100 nM | < 100 nM
Nc1nc2cc(-c3ccc4ncc(C(=O)NC5CCOCC5)n4c3)ccc2o1 [Compound 83] | < 100 nM | < 10000 nM | < 100 nM | < 100 nM
CC(C)N1CCN(c2cnc3ccc(-c4ccc5oc(N)nc5c4)cc3n2)CC1 [Compound 84] | < 100 nM | < 100 nM | < 100 nM | < 1000 nM
CC(=O)N1CCN(c2cnc3ccc(-c4ccc5oc(N)nc5c4)cc3n2)CC1 [Compound 85] | < 100 nM | < 100 nM | < 100 nM | < 100 nM
CS(=O)(=O)N1CCN(c2cnc3ccc(-c4ccc5oc(N)nc5c4)cc3n2)CC1 [Compound 86] | < 100 nM | < 1000 nM | < 100 nM | < 1000 nM
CS(=O)(=O)N1CCC(Nc2ncnc3ccc(-c4ccc5oc(N)nc5c4)cc23)CC1 [Compound 87] | < 100 nM | < 1000 nM | < 100 nM | < 100 nM
Nc1nc2cc(-c3ccc4ncc(N5CCNCC5)nc4c3)ccc2o1 [Compound 88] | < 100 nM | < 100 nM | < 1000 nM | < 10000 nM
Nc1nc2cc(-c3ccc4ncnc(NC5CCN(C(=O)C6CC6)CC5)c4c3)ccc2o1 [Compound 89] | < 100 nM | < 10000 nM | < 100 nM | < 100 nM
CS(=O)(=O)CCN1CCN(c2cnc3ccc(-c4ccc5oc(N)nc5c4)cc3n2)CC1 [Compound 90] | < 100 nM | < 1000 nM | < 1000 nM | < 10000 nM
Cc1nc2ccc(-c3ccc4oc(N)nc4c3)cn2c1C(=O)N1CCN(C)CC1 [Compound 91] | > 10000 nM | > 10000 nM | > 10000 nM | > 10000 nM
Cc1nc2ccc(-c3ccc4oc(N)nc4c3)cn2c1C(=O)N1CCOCC1 [Compound 92] | > 10000 nM | > 10000 nM | > 10000 nM | > 10000 nM
CS(=O)(=O)N1CCC(Nc2cnc3ccc(-c4ccc5oc(N)nc5c4)cc3n2)CC1 [Compound 95] | < 100 nM | < 10000 nM | < 100 nM | < 100 nM
